Measurements: patent publication US10941157B2, “Pesticidal compositions and uses thereof” (Gilead Apollo, LLC, priority 2015, dated 2021)
In brackets after ≈: the same amount, converted by molar mass.

What was measured:
Sphaerotheca fuliginea = assay: Foliar protection for cucumber powdery mildew control; type: in vivo; details: foliar spray on Cucumis sativus cv. Straight Eight, inoculated 24 hours after treatment, evaluated 7 days later
Summary of the method: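 Protective foliar spray on 10-day-old Straight Eight cucumbers, with S. fuliginea spores dusted from infected stock plants 24 h after treatment. Disease developed at 23–27 °C, 60% RH and a 16 h photoperiod. Leaves were rated for mildew growth after 7 days; test rates 10 ppm or below.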

Rhizoctonia solani (Rs) = assay: In vitro pathogen growth inhibition assay, Rs (mycelial plugs); type: cell-based; details: Rhizoctonia solani, 48 h, ≥90% growth inhibition; mycelial plugs; 48 hours; vs 2% DMSO control; read-out: Compound Concentration (ppm) sufficient for ≥90% inhibition of Rs
Summary of the method: (§1)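 Spores of Dm, Fv and Pc were diluted in 17% V8 liquid medium; Rs used 1.5 mm mycelial plugs in ¼ PDB. Compounds from 2.5 mg/ml DMSO stocks were combined with inoculum, growth was read by OD600 at 24 and 48 h with blank subtraction, and the reported value is the concentration giving ≥90% inhibition.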

[1] = test system: Fusarium moniliforme (Fm); assay: In vitro pathogen growth inhibition assay, Fm; type: cell-based; details: Fusarium verticillioides; ≥90% growth inhibition; 48 hours; vs 2% DMSO control; read-out: Compound Concentration (ppm) sufficient for ≥90% inhibition of Fm
Summary of the method: (§2)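 Value reported is the compound concentration reaching ≥90% growth inhibition, from OD readings at 24 and 48 h after blank subtraction, confirmed visually. Inoculum was spores diluted in 17% V8 medium, except Rs, using 1.5 mm mycelial plugs in ¼ PDB; actual compound concentration corrected via OD600.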

Puccinia triticina = assay: Foliar protection test for wheat leaf rust control; type: in vivo; details: foliar application to wheat (Triticum aestivum cv. Winterhawk), evaluated 10 days later
Diplodia maydis (Dm) = assay: In vitro pathogen growth inhibition assay, Dm; type: cell-based; details: Stenocarpella maydis, 48 h, ≥90% growth inhibition; 48 hours; vs 2% DMSO control; read-out: Compound Concentration (ppm) sufficient for ≥90% inhibition of Dm
Summary of the method: as §1

Fusarium graminearum = type: in vivo; details: spray on flowering Triticum aestivum cv. Samson, inoculated 24 hours after treatment, evaluated 14 days later
Phakopsora pachyrhizi = assay: Foliar protection test for Asian soybean rust control; type: in vivo; details: foliar application to soybean (Glycine max AG4832), percent disease area evaluated 14 days later
[2] = test system: Collectotrichum graminicola (Cg); assay: In vitro pathogen growth inhibition assay, Cg; type: cell-based; details: 48 h, ≥90% growth inhibition; 48 hours; vs 2% DMSO control; read-out: Compound Concentration (ppm) sufficient for ≥90% inhibition of Cg
Summary of the method: as §2

Botrtyis cinerea (Bc) = assay: In vitro pathogen growth inhibition assay, Bc; type: cell-based; details: 48 h, ≥90% growth inhibition; 48 hours; vs 2% DMSO control; read-out: Compound Concentration (ppm) sufficient for ≥90% inhibition of Bc
Summary of the method: as §2

Septoria tritici (St) = assay: In vitro pathogen growth inhibition assay, St; type: cell-based; details: Zymoseptoria tritici, 48 h, ≥90% growth inhibition; 48 hours; vs 2% DMSO control; read-out: Compound Concentration (ppm) sufficient for ≥90% inhibition of St
Summary of the method: as §2

[3] = test system: Phytophthora capsici (Pc); assay: In vitro pathogen growth inhibition assay, Pc; type: cell-based; details: 48 h, ≥90% growth inhibition, 48 hours, vs 2% DMSO control, read-out: Compound Concentration (ppm) sufficient for ≥90% inhibition of Pc
Summary of the method: as §1

[4] = test system: Blumeria graminis f. sp. hordei; assay: Foliar protection test for barley powdery mildew control; type: in vivo; details: foliar spray on Hordeum vulgare cv. Perry, inoculated 24 hours after treatment, evaluated 7 days later
Summary of the method: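 Protective foliar test: compound atomized onto both leaf surfaces of 6-day-old Hordeum vulgare cv. Perry, followed after 24 h by spore-cloud inoculation from colonized untreated plants. Disease rated on leaves 7 days on, plants held at 20 to 22° C and 70% RH.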

[5] = test system: Fusarium virguliforme (Fv); assay: In vitro pathogen growth inhibition assay, Fv; type: cell-based; details: ≥90% growth inhibition, 48 hours, vs 2% DMSO control, read-out: Compound Concentration (ppm) sufficient for ≥90% inhibition of Fv
Summary of the method: as §1

[6] = test system: Mycosphaerella graminicola (synthetic Septoria tritici); assay: Foliar protection test for wheat septoria leaf blotch control; type: in vivo; details: foliar spray on Triticum aestivum cv. WinterHawk, inoculated 1 hour after treatment, evaluated 16 days later

Structure (SMILES) | Cucumber Powdery Mildew Control at a compound concentration of 10 ppm or lower (Sphaerotheca fuliginea) | IC90 (Rhizoctonia solani (Rs)) | IC90 [1] | Wheat Leaf Rust Control at a compound concentration of 10 ppm or lower (Puccinia triticina) | IC90 (Diplodia maydis (Dm)) | Wheat Fusarium Head Blight Control at a compound concentration of 25 ppm or lower (Fusarium graminearum) | Asian Soybean Rust Control at a compound concentration of 25 ppm or lower (Phakopsora pachyrhizi) | IC90 [2] | IC90 (Botrtyis cinerea (Bc)) | IC90 (Septoria tritici (St)) | IC90 [3] | Barley Powdery Mildew Control at a compound concentration of 10 ppm or lower [4] | IC90 [5] | Septoria Leaf Blotch Control at a compound concentration of 25 ppm or lower [6]
CCOC(=O)c1sc2c(c1C)c(=O)n(C(C)(C)C(=O)NC(C)C)c(=O)n2C[C@H](OCC#N)c1cc(F)ccc1OC [Compound I-251, (R)-ethyl-1-(2-(cyanomethoxy)-2-(5-fluoro-2-methoxyphenyl)ethyl)-3-(1-(isopropylamino)-2-methyl-1-oxopropan-2-yl)-5-methyl-2,4-dioxo-1,2,3,4-tetrahydrothieno[2,3-d]pyrimidine-6-carboxylate] | AA (≥85% control of cucumber powdery mildew) | 0.4 µg/mL (≈ 0.68 µM) | 0.08 µg/mL (≈ 0.136 µM) | D (<25% control of wheat leaf rust) | 2 µg/mL (≈ 3.4 µM) | C (from 25 to 49% control of wheat fusarium head blight) | C (from 25 to 49% control of Asian soybean rust) | 2 µg/mL (≈ 3.4 µM) | 0.4 µg/mL (≈ 0.68 µM) | > 10 µg/mL | > 50 µg/mL | AA (≥85% control of barley powdery mildew) | 0.4 µg/mL (≈ 0.68 µM) | C (from 25 to 49% control of wheat septoria leaf blotch)
CCOC(=O)c1sc2c(c1C)c(=O)n(C(C)(C)C(=O)NC(C)C)c(=O)n2C[C@H](OC[C@@H](C)C#N)c1cc(F)ccc1OC [Compound I-258, (R)-ethyl-1-(2-((S)-2-cyanopropoxy)-2-(5-fluoro-2-methoxyphenyl)ethyl)-3-(1-(isopropylamino)-2-methyl-1-oxopropan-2-yl)-5-methyl-2,4-dioxo-1,2,3,4-tetrahydrothieno[2,3-d]pyrimidine-6-carboxylate] | AA (≥85% control of cucumber powdery mildew) | 0.08 µg/mL (≈ 0.13 µM) | 0.08 µg/mL (≈ 0.13 µM) | A (from 70% to 84% control of wheat leaf rust) | 0.4 µg/mL (≈ 0.649 µM) | C (from 25 to 49% control of wheat fusarium head blight) | C (from 25 to 49% control of Asian soybean rust) | 0.08 µg/mL (≈ 0.13 µM) | 0.4 µg/mL (≈ 0.649 µM) | ≥ 2 µg/mL | ≥ 10 µg/mL | A (from 70% to 84% control of barley powdery mildew) | 0.4 µg/mL (≈ 0.649 µM) | B (from 50 to 69% control of wheat septoria leaf blotch)
CCOC(=O)c1sc2c(c1C)c(=O)n(C(C)(C)C(=O)NC(C)C)c(=O)n2C[C@H](OC[C@H](C)C#N)c1cc(F)ccc1OC [Compound I-259, (R)-ethyl-1-(2-((R)-2-cyanopropoxy)-2-(5-fluoro-2-methoxyphenyl)ethyl)-3-(1-(isopropylamino)-2-methyl-1-oxopropan-2-yl)-5-methyl-2,4-dioxo-1,2,3,4-tetrahydrothieno[2,3-d]pyrimidine-6-carboxylate] | AA (≥85% control of cucumber powdery mildew) | 0.08 µg/mL (≈ 0.13 µM) | 0.08 µg/mL (≈ 0.13 µM) | C (from 25 to 49% control of wheat leaf rust) | 0.4 µg/mL (≈ 0.649 µM) | B (from 50 to 69% control of wheat fusarium head blight) | B (from 50 to 69% control of Asian soybean rust) | 0.08 µg/mL (≈ 0.13 µM) | 0.4 µg/mL (≈ 0.649 µM) | > 10 µg/mL | > 50 µg/mL | A (from 70% to 84% control of barley powdery mildew) | 0.4 µg/mL (≈ 0.649 µM) | C (from 25 to 49% control of wheat septoria leaf blotch)
COc1ccc(F)cc1[C@H](Cn1c(=O)n(C(C)(C)C(=O)NC(C)C)c(=O)c2c(C)c(-n3cccn3)sc21)OC[C@@H](C)C#N [Compound I-262, 2-(1-((R)-2-((S)-2-cyanopropoxy)-2-(5-fluoro-2-methoxyphenyl)ethyl)-5-methyl-2,4-dioxo-6-(1H-pyrazol-1-yl)-1,4-dihydrothieno[2,3-d]pyrimidin-3 (2H)-yl)-N-isopropyl-2-methylpropanamide] | AA (≥85% control of cucumber powdery mildew) | 0.08 µg/mL (≈ 0.131 µM) | ≥ 0.08 µg/mL | AA (≥85% control of wheat leaf rust) | 2 µg/mL (≈ 3.27 µM) | B (from 50 to 69% control of wheat fusarium head blight) | AA (≥85% control of Asian soybean rust) | 0.08 µg/mL (≈ 0.131 µM) | 0.4 µg/mL (≈ 0.655 µM) | ≥ 2 µg/mL | ≥ 10 µg/mL | A (from 70% to 84% control of barley powdery mildew) | 0.4 µg/mL (≈ 0.655 µM) | AA (≥85% control of wheat septoria leaf blotch)
COc1ccc(F)cc1[C@H](Cn1c(=O)n(C(C)(C)C(=O)NC(C)C)c(=O)c2c(C)c(-n3cccn3)sc21)OC[C@H](C)C#N [Compound I-263, 2-(1-((R)-2-((R)-2-cyanopropoxy)-2-(5-fluoro-2-methoxyphenyl)ethyl)-5-methyl-2,4-dioxo-6-(1H-pyrazol-1-yl)-1,4-dihydrothieno[2,3-d]pyrimidin-3 (2H)-yl)-N-isopropyl-2-methylpropanamide] | AA (≥85% control of cucumber powdery mildew) | 0.4 µg/mL (≈ 0.655 µM) | ≥ 0.08 µg/mL | AA (≥85% control of wheat leaf rust) | 2 µg/mL (≈ 3.27 µM) | B (from 50 to 69% control of wheat fusarium head blight) | AA (≥85% control of Asian soybean rust) | 0.4 µg/mL (≈ 0.655 µM) | 0.4 µg/mL (≈ 0.655 µM) | > 10 µg/mL | ≥ 50 µg/mL | A (from 70% to 84% control of barley powdery mildew) | 0.4 µg/mL (≈ 0.655 µM) | D (<25% control of wheat septoria leaf blotch)
COc1ccc(F)cc1[C@@](C)(Cn1c(=O)n(C(C)(C)C(=O)NC(C)C)c(=O)c2c(C)c(-n3nccn3)sc21)OCCC#N [Compound I-274, (S)-2-(1-(2-(2-cyanoethoxy)-2-(5-fluoro-2-methoxyphenyl)propyl)-5-methyl-2,4-dioxo-6-(2H-1,2,3-triazol-2-yl)-1,4-dihydrothieno[2,3-d]pyrimidin-3 (2H)-yl)-N-isopropyl-2-methylpropanamide] | AA (≥85% control of cucumber powdery mildew) | 0.08 µg/mL (≈ 0.131 µM) | 0.08 µg/mL (≈ 0.131 µM) | AA (≥85% control of wheat leaf rust) | 0.4 µg/mL (≈ 0.654 µM) | C (from 25 to 49% control of wheat fusarium head blight) | A (from 70% to 84% control of Asian soybean rust) | 0.08 µg/mL (≈ 0.131 µM) | 0.4 µg/mL (≈ 0.654 µM) | > 50 µg/mL | 2 µg/mL (≈ 3.27 µM) | AA (≥85% control of barley powdery mildew) | 0.4 µg/mL (≈ 0.654 µM) | AA (≥85% control of wheat septoria leaf blotch)
